Non-standard residues stand in square brackets, D forms with d. Residues, ends and D or L forms follow the SMILES beside them. *: point of attachment. Butyryl = CCCC(=O)*
Experiments:
[1] = system: Xanthomonas fragariae Xf349-9A; experiment: In vitro growth inhibition (MIC); type: cell-based; settings: TSB, 25°C, 48 h, OD 600 nm (Bioscreen C), three replicates, experiment repeated twice; MIC given as range
Method: (§1) Peptide conjugates were tested for in vitro growth inhibition of the plant-pathogenic bacteria E. amylovora PMV6076, Xanthomonas arboricola pv. pruni CFBP5563, X. fragariae Xf349-9A, X. axonopodis pv. vesicatoria 2133-2, P. syringae pv. actinidiae Psa3700.1.1, and P. syringae pv. syringae EPS94 (Fig. 1, Table SA). The corresponding monomers (flg15, BP13, Pep13, PIP1, BP16, BP100, BP143, BP387, BP475, and KSL-W) were included for comparison.
(§2) The following plant-pathogenic bacterial strains were used: Erwinia amylovora PMV6076 (Institut National de la Recherche Agronomique, Angers, France), Pseudomonas syringae pv. syringae EPS94 (Institut de Tecnologia Agroalimentària, University of Girona, Spain), Xanthomonas axonopodis pv. vesicatoria 2133-2, X. axonopodis pv. vesicatoria Xav206 (Xav) (D. F. Ritchie, Department of Plant Pathology, North Carolina State University), Pseudomonas syringae pv. actinidiae Psa3700.1.1, Xanthomonas fragariae Xf349-9A (Instituto Valenciano de Investigaciones Agrarias, Valencia, Spain), and Xanthomonas arboricola pv. pruni CFBP5563 (Collection Française de Bactéries Associées aux Plantes, Angers, France). All bacteria except for X. fragariae were stored in Luria Bertani (LB) broth supplemented with glycerol (20%) and maintained at −80°C. For X. fragariae, medium B ([80]) was used instead of LB. E. amylovora, X. arboricola pv. pruni, P. syringae pv. syringae, and P. syringae pv. actinidiae were scraped from the agar medium after growing for 24 h at 25°C, and X. axonopodis pv. vesicatoria and X. fragariae, after growing for 48 h at 25°C. The cell material was suspended in sterile water to obtain a suspension of 10^8 CFU mL^−1.
(§3) Lyophilized peptides were solubilized in sterile Milli-Q water to a final concentration of 1 mM and filter-sterilized through a 0.22-μm pore filter. […] Then, 20 μL of each dilution were mixed in a microtiter plate well with 20 μL of the corresponding suspension of the bacterial indicator, 160 μL of Trypticase soy broth (TSB) (bioMérieux, France) to a total volume of 200 μL. Three replicates for each combination of strain, compound, and concentration were used. Microbial growth was determined by optical density measurement at 600 nm (Bioscreen C; Labsystem, Helsinki, Finland). Microplates were incubated at 25°C with 20 s of shaking before hourly absorbance measurement for 48 h. The experiment was repeated twice. The MIC was taken as the lowest compound concentration with no growth at the end of the experiment.

[2] = system: Pseudomonas syringae pv. actinidiae Psa3700.1.1; experiment: In vitro growth inhibition (MIC); type: cell-based; settings: TSB, 25°C, 48 h, OD 600 nm (Bioscreen C), three replicates, experiment repeated twice; MIC given as range
Method: as §1, §2, §3

[3] = system: Xanthomonas arboricola pv. pruni CFBP5563; experiment: In vitro growth inhibition (MIC); type: cell-based; settings: TSB, 25°C, 48 h, OD 600 nm (Bioscreen C), three replicates, experiment repeated twice; MIC given as range
Method: as §1, §2, §3

[4] = system: Pseudomonas syringae pv. syringae EPS94; experiment: In vitro growth inhibition (MIC); type: cell-based; settings: TSB, 25°C, 48 h, OD 600 nm (Bioscreen C), three replicates, experiment repeated twice; MIC given as range
Method: as §1, §2, §3

[5] = system: Erwinia amylovora PMV6076; experiment: In vitro growth inhibition (MIC); type: cell-based; settings: TSB, 25°C, 48 h, OD 600 nm (Bioscreen C), three replicates, experiment repeated twice; MIC = lowest concentration with no growth, given as range
Method: as §1, §2, §3

[6] = system: horse erythrocytes; settings: TRIS buffer pH 7.2, 1 h, 37°C, absorbance 540 nm, relative to melittin 100 μM, ± confidence interval (α = 0.05)
Method: The toxicity of peptide conjugates to eukaryotic cells was determined as the ability to lyse erythrocytes (Table SB).
The hemolytic activity of the compounds was evaluated by determining hemoglobin release from erythrocyte suspensions of horse blood (5% vol/vol) (Oxoid) as previously described ([45]). Blood was centrifuged at 6000g for 5 min, washed three times with TRIS buffer (10 mM TRIS, 150 mM NaCl, pH 7.2) and diluted 10 times. Compounds were solubilized in TRIS buffer at 750, 500, 300, and 100 μM and mixed with horse erythrocytes (1:1 vol/vol). The mixture was incubated with continuous shaking for 1 h at 37°C. Then, the tubes were centrifuged at 3500g for 10 min, 80-μL aliquots of the supernatant were transferred to 100-well microplates (Bioscreen) and diluted with 80 μL water, and the absorbance measured at 540 nm (Bioscreen). […] The percentage of hemolysis (H) was calculated using the equation H = 100 × ([Op − Ob]/[Om − Ob]), where Op is the density for a given compound concentration, Ob is that for the buffer, and Om is that for the melittin positive control.

[7] = system: tobacco leaves; experiment: Effect of peptide infiltration on tobacco leaves (phytotoxicity); type: in vivo; settings: 100 μL infiltrated into mesophyll, lesion diameter 48 h after infiltration, at least three leaves; ± confidence interval (α = 0.05)
Method: Peptide conjugates were also assayed for their toxicity in tobacco leaves (Fig. 3, Table SC). After 48 h of infiltration, melittin caused a necrotic area of 0.70 and 2.17 cm in diameter at 50 and 250 μM, respectively. The monomers were not phytotoxic at those concentrations; all of them led to lesions of ≤1.2 cm at 250 μM. All peptide conjugates were also less phytotoxic than melittin, causing necrotic lesions between 0.26 and 1.67 cm in diameter at 250 μM. In particular, 15 of the 30 conjugates led to a necrotic area of <1 cm at this concentration. In general, sequences incorporating BP13 were among the most phytotoxic.
Peptide conjugates were evaluated for their effect on infiltration on tobacco leaves as described previously ([41]). Peptide solutions of 50, 150, and 250 μM were infiltrated (100 μL) into the mesophylls of fully expanded tobacco leaves. Infiltrations were carried out in a single leaf, and for each peptide and dose, at least three leaves randomly distributed in different plants were inoculated. Control infiltrations with water (negative control) or melittin (positive control) at the same molar concentration were performed. The appearance of symptoms on the leaves was followed for 48 h after infiltration and measured as lesion diameter.

[8] = system: Xanthomonas axonopodis pv. vesicatoria 2133-2; settings: TSB, 25°C, 48 h, OD 600 nm (Bioscreen C), three replicates, experiment repeated twice; MIC given as range
Excerpt: The corresponding monomers (flg15, BP13, Pep13, PIP1, BP16, BP100, BP143, BP387, BP475, and KSL-W) were included for comparison.
as §2, §3

How did the “MIC, Xf” value [1] turn out when `CCCC(=O)NCCCC[C@H](NC(=O)[C@@H](NC(=O)[C@H](CCCCN)NC(=O)[C@H](CCCCN)NC(=O)[C@H](Cc1ccccc1)NC(=O)[C@H](CC(C)C)NC(=O)[C@H](CCCCN)NC(=O)[C@H](CCCCN)NC(C)=O)[C@@H](C)CC)C(=O)N[C@@H](CCCCN)C(=O)N[C@@H](Cc1ccc(O)cc1)C(=O)N[C@@H](CC(C)C)C(N)=O` [BP387, reference compound] (Ac-KKLFKKIK(Butyryl)KYL-NH2) was run?
The value was 1.6 to 3.1 µM.

What about the “MIC, Psa” value [2] of the same compound?
Its value is 3.1 to 6.2 µM.

What about the “MIC, Xap” value [3] of the same compound?
Its value is 3.1 to 6.2 µM.

What about the “MIC, Pss” value [4] of the same compound?
Its value is 3.1 to 6.2 µM.

What about the “MIC, Ea” value [5] of the same compound?
The value was 3.1 to 6.2 µM.

What about the “Percent hemolysis at 50 μM” value [6] of the same compound?
The value was 4 ± 0.9%.

What about the “Percent hemolysis at 150 μM” value [6] of the same compound?
Its value is 11 ± 5%.

And the “Percent hemolysis at 250 μM” value [6]?
The value was 14 ± 0.5%.

And the “Percent hemolysis at 375 μM” value [6]?
The value was 18 ± 1%.

What about the “Size of the lesions in infiltrated tobacco leaves at 50 μM” value (“Size of the lesions … at 50 μM” for short) [7] of the same compound?
Its value is 0.32 ± 0.07 cm.

And the “Size of the lesions in infiltrated tobacco leaves at 150 μM” value (from here on “Size of the lesions … at 150 μM”) [7]?
The value was 0.84 ± 0.10 cm.

What about the “Size of the lesions in infiltrated tobacco leaves at 250 μM” value (shortened to “Size of the lesions … at 250 μM”) [7] of the same compound?
Its value is 0.92 ± 0.01 cm.

What about the “MIC, Xav” value [8] of the same compound?
The value was 1.6 to 3.1 µM.

How did the “MIC, Xf” value [1] turn out when `CCCC(=O)NCCCC[C@H](NC(=O)[C@H](CCCCN)NC(=O)[C@H](CC(C)C)NC(=O)[C@@H](NC(=O)[C@H](CCCCN)NC(=O)[C@H](CCCCN)NC(=O)[C@@H](Cc1ccccc1)NC(=O)[C@H](CC(C)C)NC(=O)[C@H](CCCCN)NC(=O)[C@H](CCCCN)NC(C)=O)[C@@H](C)CC)C(=O)N[C@@H](CC(C)C)C(N)=O` [BP475, reference compound] (Ac-KKL[dF]KKILKK(Butyryl)L-NH2) was run?
Its value is 1.6 to 3.1 µM.

What about the “MIC, Psa” value [2] of the same compound?
Its value is 1.6 to 3.1 µM.

What about the “MIC, Xap” value [3] of the same compound?
The value was 0.8 to 1.6 µM.

And the “MIC, Pss” value [4]?
The value was 3.1 to 6.2 µM.

What about the “MIC, Ea” value [5] of the same compound?
The value was 3.1 to 6.2 µM.

And the “Percent hemolysis at 50 μM” value [6]?
Its value is 0 ± 0%.

What about the “Percent hemolysis at 150 μM” value [6] of the same compound?
Its value is 0 ± 0%.

And the “Percent hemolysis at 250 μM” value [6]?
Its value is 0 ± 0%.

What about the “Percent hemolysis at 375 μM” value [6] of the same compound?
Its value is 0 ± 0%.

And the “Size of the lesions … at 50 μM” value [7]?
Its value is 0.50 ± 0.10 cm.

What about the “Size of the lesions … at 150 μM” value [7] of the same compound?
Its value is 0.70 ± 0.20 cm.

What about the “Size of the lesions … at 250 μM” value [7] of the same compound?
The value was 1.00 ± 0.10 cm.

And the “MIC, Xav” value [8]?
The value was 1.6 to 3.1 µM.

FKLFKKILKVL-KKLFKKILKKL-NH2 [BP13-BP16] was tested. Which “MIC, Xf” value [1] did it give?
The value was 6.2 to 12.5 µM.

What about the “MIC, Psa” value [2] of the same compound?
The value was > 50 µM.

What about the “MIC, Xap” value [3] of the same compound?
Its value is 6.2 to 12.5 µM.

And the “MIC, Pss” value [4]?
Its value is > 50 µM.

What about the “MIC, Ea” value [5] of the same compound?
Its value is > 50 µM.

What about the “Percent hemolysis at 50 μM” value [6] of the same compound?
Its value is 86 ± 13.2%.

What about the “Percent hemolysis at 150 μM” value [6] of the same compound?
The value was 86 ± 1.6%.

What about the “Percent hemolysis at 250 μM” value [6] of the same compound?
Its value is 87 ± 1.2%.

What about the “Percent hemolysis at 375 μM” value [6] of the same compound?
The value was 93 ± 2.3%.

What about the “Size of the lesions … at 50 μM” value [7] of the same compound?
The value was 0.52 ± 0.08 cm.

What about the “Size of the lesions … at 150 μM” value [7] of the same compound?
The value was 1.08 ± 0.21 cm.

What about the “Size of the lesions … at 250 μM” value [7] of the same compound?
The value was 1.40 ± 0.71 cm.

And the “MIC, Xav” value [8]?
The value was 12.5 to 25 µM.

For “FKLFKKILKVL-KKLFKKILKYL-NH2 [BP13-BP100]”, which “MIC, Xf” value [1] is on record?
Its value is 6.2 to 12.5 µM.

What about the “MIC, Psa” value [2] of the same compound?
Its value is 25 to 50 µM.

And the “MIC, Xap” value [3]?
The value was 12.5 to 25 µM.

What about the “MIC, Pss” value [4] of the same compound?
The value was > 50 µM.

What about the “MIC, Ea” value [5] of the same compound?
Its value is > 50 µM.

And the “Percent hemolysis at 50 μM” value [6]?
Its value is 100 ± 8.3%.

And the “Percent hemolysis at 150 μM” value [6]?
The value was 100 ± 5.9%.

And the “Percent hemolysis at 250 μM” value [6]?
The value was 99 ± 7.1%.

And the “Percent hemolysis at 375 μM” value [6]?
Its value is 100 ± 4.8%.

What about the “Size of the lesions … at 50 μM” value [7] of the same compound?
Its value is 0.60 ± 0.30 cm.

What about the “Size of the lesions … at 150 μM” value [7] of the same compound?
Its value is 1.20 ± 0.17 cm.

What about the “Size of the lesions … at 250 μM” value [7] of the same compound?
Its value is 1.30 ± 0.17 cm.

What about the “MIC, Xav” value [8] of the same compound?
The value was 12.5 to 25 µM.
